Results on three compounds are retold here after patent US20230413816A1, “COMPOSITIONS COMPRISING ALLYL SULFIDE AND A SURFACTANT AND METHODS OF USING SAME” (The State of Israel, Ministry of Agriculture & Rural …, priority 2020, published 2023).

SMILES strings stand for the structures.

Experiment [1] has as its system Grapevines. The experiment is described as follows: Bud break scored on the BBCH scale, commercial vineyard in South Africa (Example 3). The class given is in vivo, grapevine. The note with it: for bud break score (BBCH scale): 36 days after treatment, untreated score 19; for bud-breaking efficiency compared with commercially available agents (HC): sulfide compound with 2% w/w T7. From the text: FIGS. 5A-5B are bar graphs presenting a comparison between the bud break efficiency of the exemplary compositions of the invention and controls in vine. The X-axis represents different treatments, and the Y-axis represents vine growth stage according to the BBCH scale, as scored 36 days after treatment. FIG. 5A represents a comparison between the synergistic bud break efficiency of T7 in combination with different sulfide compounds (DADS and dimethyl sulfide, DMS). 1—untreated vines (negative control); 2—2.5% w/w DMS and 2% w/w T7; 3—5% w/w DMS and 2% w/w T7; 4—HC (positive control); 5—5% w/w DADS and 2% w/w T7. FIG. 5B represents a comparison between the synergistic bud break efficiency of 6% w/w DADS in combination with various concentrations of T7 (entries 4-7) versus controls (entries 1-2, and 8). 1—untreated vines (negative control); 2—12% w/w T7 no DADS; 3—6% w/w DADS no T7; 4—6% w/w DADS and 12% w/w T7; 5—6% w/w DADS and 1% w/w T7; 6—6% w/w DADS and 2% w/w T7; 7—6% w/w DADS and 0.5% w/w T7; 8—HC (positive control).
Grapevines in a commercial vineyard in South Africa were sprayed exemplary agricultural compositions of the invention. Two different experimental treatments have been performed on 5 blocks of 14 vines. The bud break efficiency of each treatment has been evaluated by scoring 60 buds per vine according to BBCH scale at different time points after treatment. BBCH values represent average values of five blocks per treatment. The tested exemplary agricultural compositions utilized for each experimental treatment were as follows: • 2% w/w of T7 (see Table 1) together with various concentrations (2.5, 5 and 6% w/w) of the sulfide compound ([…] (DMS); and DADS). The effect of these treatments was compared to a commercial formulation comprising 50% HC; as well as to a negative control, i.e. untreated vines. The results of this experiment are represented in FIG. 5A. • 6% w/w DADS together with various concentrations (0.5, 1, 2 and 12% w/w) of T7. The effect of these treatments was compared to a commercial formulation comprising 50% HC; as well as to negative controls including untreated plant, and plants treated with 12% w/w T7 and 6% w/w DADS, respectively. The results of this experiment are represented in FIG. 5B.

In experiment [2] the test system is whole vine. As to conditions: applied to the whole vine rather than to cuttings; cited from earlier work.
Experiment [3] relates to spur-pruned cv. Early Sweet vines. The experiment is described as follows: Bud breaking on whole vines in a vineyard (Example 1, Jordan Valley). Type of experiment: in vivo, grapevine. Here is the method: FIG. 1 is a graph presenting a comparison between the bud break efficiency of the exemplary compositions of the invention and controls, when applied to spur-pruned cv. Early Sweet vines at the beginning of January in a vineyard located at Argaman, the Jordan Valley, Israel. Bud counts were conducted once a week and started about […] after treatment. The tested combinations were as follows: (a) DADS at 6% w/w, together with (b) 2% w/w of a non-ionic surfactant (abbreviated as T3-D2, T4-D2, T5-D2, T6-D2 or T7-D2, respectively) or of a cationic surfactant (Armobreak®, abbreviated as T1-D2). The controls were as follows: (a) plants treated with Triton X-100 (abbreviated as Con), and (b) single treatments with DADS, HC, and the surfactants (abbreviated as T1, T3, T4, T5, T6 or T7, respectively). The chemical structures of the surfactants are as represented in Table 1, below. The Y-axis represents the percentage of the bursting buds out of the total number of the buds on a vine.
The Y-axis represent the percentage of bursting basal buds out of total number of spurs on a vine.
Mature spur-pruned cv. […]
Each formulation was sprayed onto five blocks of two vines, wherein the values presented in FIG. 1 are an average of the ten tested grapevines. […] Total number of buds was recorded once for each vine, and number of bursting buds were recoded for each vine at 22, 27, 34 and 41 d after treatment.

Experiment [4] deals with Kiwi plants. Nature of the experiment: Bud break trial on kiwi (Example 4). Type of experiment: in vivo. As to conditions: 49 days after treatment. From the text:
The inventors performed numerous experiments to assess the effect of application of an exemplary composition of the invention (e.g. about 6% w/w DADS and about 4% w/w T7) on bud break in various plants. For each test from about 500 to about 1500 l/ha of the composition have been applied (e.g. by spraying) to the orchard, to result in almost complete wetting of the treated plants. The tested plant species included kiwi, cherry, apple, and plum.

In the case of `CSC` [DMS, dimethyl sulfide], the “bud break score (BBCH scale)” value in experiment [1] (2.5% w/w DMS and 2% w/w T7) was 24; in experiment [1] (5% w/w DMS and 2% w/w T7), 30-31. Besides, the “bud-breaking efficiency compared with commercially available agents (HC)” value in experiment [1] is listed as “comparable with the efficiency of commercially available agents”.

With `C=CCSSCC=C` [DADS, diallyl disulfide], the “bud-breaking efficiency compared with commercially available agents (HC)” value in experiment [1] is “comparable with the efficiency of commercially available agents”. For the same compound, the “bud break enhancing effect compared with HC” value in experiment [2] is “very limited and inferior to HC”.

As for `N#CN` [HC, hydrogen cyanamide], the “bud break efficiency, ranking among the treatments of FIG. 1” value in experiment [3] (6% w/w DADS + 2% w/w surfactant, or HC, percentage of bursting buds) is listed as “superior”. Moreover, the “bud break uniformity along a spur” value in experiment [3] (FIG. 3, basal buds) is given as “significantly less uniform bud break”. In experiment [4], the bud break came out at 24%, the “bud break of HC relative to the composition of the invention (times less)” value is listed as approximately 2 times and the “green foliage coverage score (of 10)” value is 2.
